# Results as given in US20190119193A1, “COMPOSITION FOR REGULATING PLANT GROWTH, METHOD FOR TREATING PLANTS THEREWITH, AND ACTIVE INGREDIENT THEREOF” (Ivan Aleksandrovich Starikov, priority 2016, published 2019).
# What was measured:
# Format in all cases: in vivo
# Details in all cases: for Germinative energy: day 3; for Germinative capacity / Number of lateral roots / Sprout height / Taproot length: day 7
# [1] = test system: tomato seeds (“Volgogradets” variety); test: Laboratory tests of DMOA and DEOA for tomato seeds
# Procedure: (§1) After that DMOA and DEOA were dissolved in dimethyl sulfoxide to give solutions of 10 g/L concentration, then water was added to give aqueous solutions of DMOA with concentrations of 5.5·10^−5 M, 5.5·10^−6 M, 5.5·10^−7 M, 5.5·10^−8 M, 5.5·10^−9 M and DEOA with concentrations of 4.8·10^−5 M, 4.8·10^−6 M, 4.8·10^−7 M, 4.8·10^−8 M, 4.8·10^−9 M.
# (§2) The obtained aqueous solutions of DMOA and DEOA were tested in the Scientific Center of Soil-Ecological Reasearch of the Federal State-Funded Educational Institution of Higher Education “Russian State Agrarian University—Moscow Agricultural Academy named after K. A. Timiryazev” (Moscow, 2015) according to the method described by T. A. Sergeeva (Method of laboratory testing of herbicides, Plant protection, 1963, No. 2, pp. 42-43). The primary laboratory screening of DMOA and DEOA was carried out on the seeds of five different crops: sunflower of “Voronezh 638” variety, soybean of “Vilana” variety, alfalfa of “Vega” variety, cucumber of “Nezhinsky” variety and tomato of “Volgogradets” variety.
# (§3) Water was used as a reference.
# (§4) A single experiment was carried out in a Petri dish. A circle of filter paper was laid at the bottom of the dish and treated with 5 ml of the work solution selected for the experiment. After that 25 seeds were uniformly laid on the surface of the treated filter paper. The Petri dish was kept at a temperature of 21-23° C. with illumination by fluorescent lamps for 7 days. The fourfold replication of the experiment within a single variant was applied.
# (§5) The experiment identified the number and percentage of normally germinated seeds on day 3 (germinative energy) and on day 7 (germinative capacity) after the beginning of the experiment. On day 7 the main biometric parameters were also measured: sprout height (mm), taproot length (mm) and number of lateral roots (pcs).
# (§6) The results were processed with the method of variance analysis with the help of STRAZ software in order to get the LSD0.05 (least significant difference between the test results on 5% significance level).
# [2] = test system: sunflower seeds (“Voronezh 638” variety); test: Laboratory tests of DMOA and DEOA for sunflower seeds
# Procedure: as §1, §2, §3, §4, §5, §6
# [3] = test system: alfalfa seeds (“Vega” variety); test: Laboratory tests of DMOA and DEOA for alfalfa seeds
# Procedure: as §1, §2, §3, §4, §5, §6
# [4] = test system: cucumber seeds (“Nezhinsky” variety); test: Laboratory tests of DMOA and DEOA for cucumber seeds
# Procedure: as §1, §2, §3, §4, §5, §6
substance,measurement,setting,value
Sodium salt of dimethyl ester of oxaloacetic acid [DMOA],Germinative energy,[1]; 5.5 · 10^−5 M,93%
same,Germinative capacity,[1]; 5.5 · 10^−5 M,95%
same,Number of lateral roots,[1]; 5.5 · 10^−5 M,0.2 pcs.
same,Sprout height,[1]; 5.5 · 10^−5 M,25.9 mm
same,Taproot length,[1]; 5.5 · 10^−5 M,83.2 ↑ mm
same,Germinative energy,[1]; 5.5 · 10^−6 M,88%
same,Germinative capacity,[1]; 5.5 · 10^−6 M,90%
same,Number of lateral roots,[1]; 5.5 · 10^−6 M,0.5 ↑ pcs.
same,Sprout height,[1]; 5.5 · 10^−6 M,24.6 mm
same,Taproot length,[1]; 5.5 · 10^−6 M,79.8 mm
same,Germinative energy,[1]; 5.5 · 10^−7 M,88%
same,Germinative capacity,[1]; 5.5 · 10^−7 M,98 ↑ %
same,Number of lateral roots,[1]; 5.5 · 10^−7 M,0.6 ↑ pcs.
same,Sprout height,[1]; 5.5 · 10^−7 M,23.7 mm
same,Taproot length,[1]; 5.5 · 10^−7 M,74.5 mm
same,Germinative energy,[1]; 5.5 · 10^−8 M,98 ↑ %
same,Germinative capacity,[1]; 5.5 · 10^−8 M,98 ↑ %
same,Number of lateral roots,[1]; 5.5 · 10^−8 M,0.1 pcs.
same,Sprout height,[1]; 5.5 · 10^−8 M,23.4 mm
same,Taproot length,[1]; 5.5 · 10^−8 M,83.6 ↑ mm
same,Germinative energy,[1]; 5.5 · 10^−9 M,88%
same,Germinative capacity,[1]; 5.5 · 10^−9 M,90%
same,Number of lateral roots,[1]; 5.5 · 10^−9 M,0.7 ↑ pcs.
same,Sprout height,[1]; 5.5 · 10^−9 M,24.4 mm
same,Taproot length,[1]; 5.5 · 10^−9 M,86.9 ↑↑ mm
same,Germinative energy,[2]; 5.5 · 10^−5 M,80%
same,Germinative capacity,[2]; 5.5 · 10^−5 M,90%
same,Number of lateral roots,[2]; 5.5 · 10^−5 M,9.7 pcs.
same,Sprout height,[2]; 5.5 · 10^−5 M,23.8 mm
same,Taproot length,[2]; 5.5 · 10^−5 M,35.2 mm
same,Germinative energy,[2]; 5.5 · 10^−6 M,83%
same,Germinative capacity,[2]; 5.5 · 10^−6 M,93%
same,Number of lateral roots,[2]; 5.5 · 10^−6 M,8.5 pcs.
same,Sprout height,[2]; 5.5 · 10^−6 M,23.0 mm
same,Taproot length,[2]; 5.5 · 10^−6 M,46.4 ↑ mm
same,Germinative energy,[2]; 5.5 · 10^−7 M,90 ↑ %
same,Germinative capacity,[2]; 5.5 · 10^−7 M,93%
same,Number of lateral roots,[2]; 5.5 · 10^−7 M,8.2 pcs.
same,Sprout height,[2]; 5.5 · 10^−7 M,26.9 ↑ mm
same,Taproot length,[2]; 5.5 · 10^−7 M,29.8 ↓ mm
same,Germinative energy,[2]; 5.5 · 10^−8 M,93 ↑ %
same,Germinative capacity,[2]; 5.5 · 10^−8 M,91%
same,Number of lateral roots,[2]; 5.5 · 10^−8 M,7.8 pcs.
same,Sprout height,[2]; 5.5 · 10^−8 M,28.8 ↑↑ mm
same,Taproot length,[2]; 5.5 · 10^−8 M,38.1 mm
same,Germinative energy,[2]; 5.5 · 10^−9 M,87%
same,Germinative capacity,[2]; 5.5 · 10^−9 M,93%
same,Number of lateral roots,[2]; 5.5 · 10^−9 M,11.6 ↑ pcs.
same,Sprout height,[2]; 5.5 · 10^−9 M,27.8 mm
same,Taproot length,[2]; 5.5 · 10^−9 M,51.9 ↑ mm
same,Germinative energy,[3]; 5.5 · 10^−5 M,93%
same,Germinative capacity,[3]; 5.5 · 10^−5 M,100 ↑ %
same,Number of lateral roots,[3]; 5.5 · 10^−5 M,0.6 ↑ pcs.
same,Sprout height,[3]; 5.5 · 10^−5 M,30.0 mm
same,Taproot length,[3]; 5.5 · 10^−5 M,28.1 mm
same,Germinative energy,[3]; 5.5 · 10^−6 M,88%
same,Germinative capacity,[3]; 5.5 · 10^−6 M,100 ↑ %
same,Number of lateral roots,[3]; 5.5 · 10^−6 M,0.7 ↑ pcs.
same,Sprout height,[3]; 5.5 · 10^−6 M,29.0 mm
same,Taproot length,[3]; 5.5 · 10^−6 M,30.9 mm
same,Germinative energy,[3]; 5.5 · 10^−7 M,88%
same,Germinative capacity,[3]; 5.5 · 10^−7 M,93%
same,Number of lateral roots,[3]; 5.5 · 10^−7 M,0.6 ↑ pcs.
same,Sprout height,[3]; 5.5 · 10^−7 M,28.9 mm
same,Taproot length,[3]; 5.5 · 10^−7 M,31.3 mm
same,Germinative energy,[3]; 5.5 · 10^−8 M,98 ↑ %
same,Germinative capacity,[3]; 5.5 · 10^−8 M,93%
same,Number of lateral roots,[3]; 5.5 · 10^−8 M,0.5 ↑ pcs.
same,Sprout height,[3]; 5.5 · 10^−8 M,28.9 mm
same,Taproot length,[3]; 5.5 · 10^−8 M,31.2 mm
same,Germinative energy,[3]; 5.5 · 10^−9 M,88%
same,Germinative capacity,[3]; 5.5 · 10^−9 M,100 ↑ %
same,Number of lateral roots,[3]; 5.5 · 10^−9 M,0.6 ↑ pcs.
same,Sprout height,[3]; 5.5 · 10^−9 M,30.1 mm
same,Taproot length,[3]; 5.5 · 10^−9 M,35.6 mm
same,Germinative energy,[4]; 5.5 · 10^−5 M,86%
same,Germinative capacity,[4]; 5.5 · 10^−5 M,82%
same,Number of lateral roots,[4]; 5.5 · 10^−5 M,11.9 pcs.
same,Sprout height,[4]; 5.5 · 10^−5 M,19.0 mm
same,Taproot length,[4]; 5.5 · 10^−5 M,74.2 mm
same,Germinative energy,[4]; 5.5 · 10^−6 M,88%
same,Germinative capacity,[4]; 5.5 · 10^−6 M,91%
same,Number of lateral roots,[4]; 5.5 · 10^−6 M,12.3 pcs.
same,Sprout height,[4]; 5.5 · 10^−6 M,15.9 mm
same,Taproot length,[4]; 5.5 · 10^−6 M,75.6 mm
same,Germinative energy,[4]; 5.5 · 10^−7 M,85%
same,Germinative capacity,[4]; 5.5 · 10^−7 M,94%
same,Number of lateral roots,[4]; 5.5 · 10^−7 M,13.7 pcs.
same,Sprout height,[4]; 5.5 · 10^−7 M,17.7 mm
same,Taproot length,[4]; 5.5 · 10^−7 M,78.1 mm
same,Germinative energy,[4]; 5.5 · 10^−8 M,86%
same,Germinative capacity,[4]; 5.5 · 10^−8 M,78%
same,Number of lateral roots,[4]; 5.5 · 10^−8 M,13.5 pcs.
same,Sprout height,[4]; 5.5 · 10^−8 M,17.1 mm
same,Taproot length,[4]; 5.5 · 10^−8 M,74.8 mm
same,Germinative energy,[4]; 5.5 · 10^−9 M,82%
same,Germinative capacity,[4]; 5.5 · 10^−9 M,95%
same,Number of lateral roots,[4]; 5.5 · 10^−9 M,12.9 pcs.
same,Sprout height,[4]; 5.5 · 10^−9 M,18.2 mm
same,Taproot length,[4]; 5.5 · 10^−9 M,82.5 mm
